# In patent US12043845B2, “Methods of cell culture” (Polpharma Biologics S.A., priority 2017, dated 2024):
# Experiments:
# [1] = system: CHO cells producing ustekinumab; assay: Cation exchange chromatography of acidic, main and basic species of ustekinumab from CHO cells cultured with citrulline; assay type: cell-based, Chinese hamster
# Procedure: (§1) The stirred tank reactors (STRs) were inoculated with the cell line C20 or with the cell line C69 in pre-heated production medium (PolCHO-P, available from GE healthcare, Catalogue Number G3258.3050), at a target density of 1.0*10^6 viable cells (vc) mL^−1. From day 3 on, 4.2% (v/v) of feed A (available from GE healthcare, Catalogue Number G3259.3010) per day was added at a continuous rate over 24 hours (equivalent to 2.9 g glucose L^−1 day^−1). If required, a D-glucose solution was used to increase glucose concentration in the broth to 4 g L^−1. In addition, 0.42% (v/v) of feed B (available from GE healthcare, Catalogue Number G3260.0001) was added every day as a bolus. For cell line C20 different concentrations of citrulline (5 g/l, 8 g/l and 12 g/l) were added to the medium and to feed A. For cell line C69 10 g/l citrulline in combination with 40 mM sucrose were added to the medium and to feed A.
# Additional samples of approximately 30 mL were collected on days 6, 10 and 14, centrifuged and stored in −80° C. for product quality analysis. […]
# (§2) For data evaluation the Waters Empower 3 software was used. The sample composition was determined by detecting peaks based on their retention time and the relative proportions of each peak were calculated from the peak areas. […]
# [2] = system: CHO cells producing natalizumab; assay: Cation exchange chromatography of acidic and basic species of natalizumab from CHO cells cultured with citrulline; assay type: cell-based, Chinese hamster; details: increasing concentrations of citrulline (8, 12 g/l), 14 days
# Procedure: Cell lineC4 expressing natalizumab was cultured in 15 ml AMBR microbioreactors. Dissolved oxygen tension (DOT) was controlled at 40% and the temperature maintained at 36.8° C. during the first 4 days with a temperature shift to 33° C. on day 5 for the rest of the cultivation time. The targeted viable cell concentration at inoculation was 1.0×10^6±0.1 viable cells mL^−1. The post inoculation volume of the production stage bioreactors was set to 15 mL in the microbioreactors of the AMBR system. The pH set point was 7.0±0.1. The basal medium was PolCHO-P CD (available from GE healthcare). From day 3 on, 4.2% (v/v) of PolCHO feed A (available from GE healthcare) per day was added as a bolus. If required, a D-glucose solution was used to increase glucose concentration in the broth to 4 g L^−1. In addition, 0.42% (v/v) of PolCHO feed B (available from GE healthcare) was added every day as a bolus. […]
# The separation was carried out by Cation Exchange High Performance Liquid Chromatography on the UPLC H-Class Bio System using UV detection under Empower™ Software control. […] The column temperature was 40° C. and elution was monitored at 220 nm.
# as §2
# [3] = system: CHO cells producing ustekinumab; assay: Cell diameter by LUNA cell counter; assay type: cell-based, Chinese hamster; details: citrulline added, vs control without citrulline (FIG. 2)
# Procedure: as §1
# b) In another set of experiments cell line C20 expressing ustekinumab was selected. This cell line was thawed and cultured in 25 mL shake flasks (SFs) containing PolCHO-P CD (GE Healthcare) medium with methotrexate and geneticin. […] Every day before feeding, glucose concentration was measured. […]
# The viable cell concentration, viability and cell size were determined using a LUNA™ cell counter with the following protocol: […]
# [4] = system: CHO cells producing ustekinumab; assay: Specific production rate (Qp) for ustekinumab; assay type: cell-based, Chinese hamster; details: citrulline added, vs control without citrulline (FIG. 3)
# Procedure: as §1, with “For cell line C20 different concentrations of citrulline (5 g/l, 8 g/l and 12 g/l) were added to the medium and to feed A. For cell line C69 10 g/l citrulline in combination with 40 mM sucrose were added to the medium and to feed A.” left out
# b) In another set of experiments cell line C20 expressing ustekinumab was selected. […] Every day before feeding, glucose concentration was measured. […]
# (§3) The Octet system performs label-free quantitation of antibodies, proteins, peptides, DNA and other biomolecules and provides kinetic characterization of biomolecular binding interactions. […] The binding rates of the test samples are measured and interpolated from a standard curve generated from a similar or equivalent protein to determine the concentration of the protein. […]
# [5] = system: CHO cells producing omalizumab; assay: Specific production rate (Qp) for omalizumab; assay type: cell-based, Chinese hamster; details: citrulline added, vs control without citrulline (FIG. 8)
# Procedure: CHO cell line 230×846 expressing the anti-IgE antibody omalizumab was selected for this experiment. The cell line was thawed and cultured in 25 mL shake flasks (SFs) containing PowerCHO-2 CD medium (Lonza) with 4 mM L-glutamine and 1% (v/v) Fe-citrate solution. Subsequently, the cells were expanded in SFs with increasing volume as seed train. 12 SFs were inoculated at a concentration of 0.5·10^6 vc mL^−1. The SFs were inoculated in 25 mL PowerCHO-2-CD medium containing L-glutamine and Fe-citrate and placed on a shaking plateau in an incubator at 37° C. On the day of inoculation, 2% (v/v) of BC feed and 0.2% (v/v) of cys/tyr feed was given. The glucose concentration was measured every day before feeding. From day 3 on, feeding was done based on glucose consumption of the previous day, aiming for a glucose concentration of 3.5 g/L. Different concentrations of citrulline were added to the medium and BC feed.
# as §3
# [6] = system: CHO cells producing ustekinumab; assay: Rapifluor-MS released N-glycan analysis of ustekinumab; assay type: cell-based, Chinese hamster; details: 5 g/l and 8 g/l citrulline, 12 or 14 days, vs control
# Procedure: The shake flasks were inoculated in 25 mL Actipro medium (available from GE healthcare, Catalogue number SH31039.01) and placed on a shaking plateau in an incubator at 37° C. On the day of inoculation, 2% (v/v) of Cell boost 7A (available from GE healthcare, Catalogue number SH31026.02) and 0.2% (v/v) of Cell boost 7B (available from GE healthcare, Catalogue number SH31027.01) was given. From day 3 on, a flat feed was given of 4% (v/v) of Cell boost per day. Every day before feeding, glucose concentration was measured. If required, a D-glucose solution was used to increase glucose concentration in the broth to 4 g L^−1, before feeding. In addition, 0.4% (v/v) of Cell boost 7B was added every day as a bolus. Different concentrations of citrulline (5 g/l and 8 g/l) were added to the medium and to Cell boost 7A. At day 5 after inoculating the cells into the cell culture medium the temperature of the cell culture was reduced to 31° C.±0.2° C.
# The N-glycan composition and relative distribution thereof was analyzed using the Rapifluor MS N-Glycan Kit purchased from Waters, using the manufacturer's instructions. It comprises denaturation and release of N-linked glycans by PNGase F from Protein A purified material. The released glycans are then labeled with the proprietary Rapifluor label, which contains a fluorescent moiety and a proton capturing moiety. […]
# [7] = system: CHO cells; assay: Citrulline concentration in culture medium during fermentation (UPLC-MS); assay type: in vitro ADME, Chinese hamster; details: cell line C69, stirred tank reactor, 10 g/l citrulline, days 8, 11, 13, 14
# Procedure: Additional samples of approximately 30 mL were collected on days 6, 10 and 14, centrifuged and stored in −80° C. for product quality analysis. For the experiments with cell line C69 samples were also taken to determine the concentration of citrulline at different time points (days 8, 11, 13 and 14) during the bioreactor run.
# To determine if citulline can be metabolised by CHO cells clarified samples were taken from the stirred tank reactor run with clone C69. Quantification of the concentration of citrulline during the culture was standardized using a 10 g/l citulline solution in WFI and the PolCHO medium was used as a negative control.
# About 1 mL of culture medium was centrifuged in an Eppendorf centrifuge at 15000 rpm and at 4° C. for 10 minutes. […]
# Using reference sample, the molecular mass of citrulline was confirmed by UPLC-MS to be 175.08 Da. The concentration of citrulline in the reference sample was 55.84 mM as determined by qNMR. The citrulline concentrations in culture medium samples of days 8, 11, 13 and 14 were determined by UPLC-MS analysis after appropriate dilution of the samples and by using external calibration lines prepared using the reference sample. No citrulline was detected in POLCHO medium (see FIG. 11).
compound,measurement,setting,value
NC(=O)NCCC[C@H](N)C(=O)O [citrulline],basic peaks of ustekinumab,"[1]; 12 g L^-1 citrulline, day 14, control 11%",22%
same,acidic 2 peaks of ustekinumab,"[1]; increasing concentrations of citrulline (5, 8, 12 g/l), day 14, vs control",decreased dose-dependently
same,sum of acidic peaks of natalizumab,[2],decreased dose-dependently
same,sum of basic peaks of natalizumab,[2],increased dose-dependently
same,diameter of the cells,[3],increases
same,specific production rate Qp for ustekinumab,[4],increases
same,specific production rate Qp for omalizumab,[5],same increase
same,"G0F, G1F, G1'F, G2F and sum of sialylated species",[6],no differences
same,concentration of citrulline during the fermentation,[7],does not change significantly
